Assay results as given in US10265298B2, “Method of increasing the bioavailability of silybin” (Macau University of Science and Technology, priority 2017, dated 2019).

Key:
Caco-2 cell monolayers = assay: Bidirectional transport across Caco-2 cell monolayers; settings: for lowest effective dosage for inhibiting efflux transport of silybin: silybin 10 μM; for PA-B: human, Caco-2, 180 min; for mean efflux ratio (PB-A/PA-B): silybin alone, no inhibitor
Procedure: Human colorectal adenocarcinoma-2 (Caco-2) cells was obtained from American Type Culture Collection (Manassas, Va.) and frozen at −80° C. For transport study, cells were cultured at 37° C./5% CO2 in Dulbecco's modified Eagle's medium supplemented with 10% fetal bovine serum, 1% nonessential amino acids, and 1% penicillin-streptomycin. […] The culture medium was changed 24 hours after seeding to remove cell debris and dead cells; after which the medium was changed on alternate days. Monolayers were used for transport assays between 21 and 23 days for Caco-2 cells. Prior to transport study, cell monolayers were certified based on internal criteria on transepithelial electrical resistance (TEER) values.
Prior to transport study, cell monolayers were certified based on our internal criteria on transepithelial electrical resistance (TEER) values, and only monolayers that met the acceptance criteria (transepithelial electrical resistance >500 Ω·cm^2 for Caco-2 cells and >200 Ω·cm^2 for MDCK cells) were selected for transport studies.
(§1) Bidirectional transport assays in human colorectal adenocarcinoma 2 (Caco-2) and Madin-Darby canine kidney II (MDCK II) was carried out by dosing substrates in assay buffer to either the apical chamber (A-to-B) or the basolateral chamber (B-to-A); cells were then incubated at 37° C. with shaking at 50 rotations per minute (rpm), and 100 μl samples were collected at 30, 60, 90, 120 and 180 minutes from the basolateral chamber to study the drug transport of AP to BL, or apical chamber to study the drug transport of BL to AP. Cell monolayers were then washed twice with ice-cold assay buffer and lysed with methanol on ice for 10 minutes. For inhibition studies, Caco-2 or MDCK II cell monolayers were pre-incubated with an inhibitor in both apical and basolateral chambers for 30 minutes, and bidirectional transport of 10 μM silybin was conducted in the absence (control) or presence of the inhibitor in both chambers. […] For fluorescence intensity detection, samples collected from AP or BL side were immediately detected in 96 well black plate by Microplate ultraviolet-visible spectroscopy (UV/VIS) spectrophotometer (TECAN infinite M200 PRO, Männedorf, Switzerland). In all cases, each determination was performed in triplicate.
(§2) The apparent permeability coefficients (Papp) were calculated as Papp=dQ/dt×1/(C“0”A) where dQ/dt (mM/sec) is the rate of permeation of the drug across the cells, C0 (millimolar (mM)) is the donor compartment concentration at time zero and A (cm^2) is the area of the cell monolayer. C0 is obtained from analysis of the dosing solution at the start experiment. Efflux Ratio (ER)=Papp (B to A)/Papp (A to B), while Papp (B−A) is the Papp value measured in the B to A direction, and Papp (A−B) is the Papp value measured in the A to B direction. 1.5 Preparation of Rat Sandwich-Cultured Hepatocytes

BCRP = biological target: T1, BCRP (Homo sapiens, UniProt Q9UNQ0); assay: Inhibition of pheophorbide A (Ph A) efflux in MDCKII-BCRP cell monolayers; settings: for mean efflux ratio of Ph A in the presence of inhibitor: dog, 180 min
T1 sequence (Q9UNQ0 1-655): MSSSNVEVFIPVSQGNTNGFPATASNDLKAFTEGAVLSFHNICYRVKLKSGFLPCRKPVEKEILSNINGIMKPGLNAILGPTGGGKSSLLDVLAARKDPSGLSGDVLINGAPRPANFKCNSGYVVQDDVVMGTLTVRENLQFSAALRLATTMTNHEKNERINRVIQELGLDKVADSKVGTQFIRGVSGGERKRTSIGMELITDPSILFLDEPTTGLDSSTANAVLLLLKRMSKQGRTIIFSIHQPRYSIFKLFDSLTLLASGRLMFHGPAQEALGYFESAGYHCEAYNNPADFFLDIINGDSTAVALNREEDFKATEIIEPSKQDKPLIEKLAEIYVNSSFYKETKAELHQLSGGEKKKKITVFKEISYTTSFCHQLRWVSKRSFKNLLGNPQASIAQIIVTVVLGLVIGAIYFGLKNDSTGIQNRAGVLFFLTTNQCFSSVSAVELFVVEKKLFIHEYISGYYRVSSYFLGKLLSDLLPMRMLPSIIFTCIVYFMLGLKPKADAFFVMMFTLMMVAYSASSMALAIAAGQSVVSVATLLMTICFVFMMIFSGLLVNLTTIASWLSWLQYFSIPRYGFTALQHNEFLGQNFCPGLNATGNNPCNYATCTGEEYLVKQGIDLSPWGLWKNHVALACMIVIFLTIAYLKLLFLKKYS
Procedure: Parental Madin-Darby canine kidney II (MDCKII), multi-drug resistance gene 1-Madin-Darby canine kidney II (MDR1-MDCKII), breast cancer resistance protein-Madin-Darby canine kidney II (BCRP-MDCKII), and multi-drug resistance protein 2-Madin-Darby canine kidney II (MRP2-MDCKII) cells were kindly provided by the Netherlands Cancer Institute (Amsterdam, Netherlands) and frozen at −80° C. The MDCKII cells were cultured at 37° C./5% CO2 in Dulbecco's modified Eagle's medium supplemented with 10% fetal bovine serum, 1% nonessential amino acids, and 2% penicillin-streptomycin. The cells were seeded on transwell inserts (Corning Inc.) at a density of 2.0×10^5 cells/cm^2 and grown for 4-5 days to form confluent monolayers.
as §1, §2
(§3) (*, P<0.05;**, P<0.01; ***, P<0.001 vs absence of any inhibitor. n=3).
as §3

MRP2 = MRP2 (Homo sapiens, UniProt Q92887); type: in vitro ADME; design: host or cells: MDCKII (Madin-Darby canine kidney II); settings: for mean net efflux ratio: Caco-2
Sequence of MRP2 (Q92887 whole entry): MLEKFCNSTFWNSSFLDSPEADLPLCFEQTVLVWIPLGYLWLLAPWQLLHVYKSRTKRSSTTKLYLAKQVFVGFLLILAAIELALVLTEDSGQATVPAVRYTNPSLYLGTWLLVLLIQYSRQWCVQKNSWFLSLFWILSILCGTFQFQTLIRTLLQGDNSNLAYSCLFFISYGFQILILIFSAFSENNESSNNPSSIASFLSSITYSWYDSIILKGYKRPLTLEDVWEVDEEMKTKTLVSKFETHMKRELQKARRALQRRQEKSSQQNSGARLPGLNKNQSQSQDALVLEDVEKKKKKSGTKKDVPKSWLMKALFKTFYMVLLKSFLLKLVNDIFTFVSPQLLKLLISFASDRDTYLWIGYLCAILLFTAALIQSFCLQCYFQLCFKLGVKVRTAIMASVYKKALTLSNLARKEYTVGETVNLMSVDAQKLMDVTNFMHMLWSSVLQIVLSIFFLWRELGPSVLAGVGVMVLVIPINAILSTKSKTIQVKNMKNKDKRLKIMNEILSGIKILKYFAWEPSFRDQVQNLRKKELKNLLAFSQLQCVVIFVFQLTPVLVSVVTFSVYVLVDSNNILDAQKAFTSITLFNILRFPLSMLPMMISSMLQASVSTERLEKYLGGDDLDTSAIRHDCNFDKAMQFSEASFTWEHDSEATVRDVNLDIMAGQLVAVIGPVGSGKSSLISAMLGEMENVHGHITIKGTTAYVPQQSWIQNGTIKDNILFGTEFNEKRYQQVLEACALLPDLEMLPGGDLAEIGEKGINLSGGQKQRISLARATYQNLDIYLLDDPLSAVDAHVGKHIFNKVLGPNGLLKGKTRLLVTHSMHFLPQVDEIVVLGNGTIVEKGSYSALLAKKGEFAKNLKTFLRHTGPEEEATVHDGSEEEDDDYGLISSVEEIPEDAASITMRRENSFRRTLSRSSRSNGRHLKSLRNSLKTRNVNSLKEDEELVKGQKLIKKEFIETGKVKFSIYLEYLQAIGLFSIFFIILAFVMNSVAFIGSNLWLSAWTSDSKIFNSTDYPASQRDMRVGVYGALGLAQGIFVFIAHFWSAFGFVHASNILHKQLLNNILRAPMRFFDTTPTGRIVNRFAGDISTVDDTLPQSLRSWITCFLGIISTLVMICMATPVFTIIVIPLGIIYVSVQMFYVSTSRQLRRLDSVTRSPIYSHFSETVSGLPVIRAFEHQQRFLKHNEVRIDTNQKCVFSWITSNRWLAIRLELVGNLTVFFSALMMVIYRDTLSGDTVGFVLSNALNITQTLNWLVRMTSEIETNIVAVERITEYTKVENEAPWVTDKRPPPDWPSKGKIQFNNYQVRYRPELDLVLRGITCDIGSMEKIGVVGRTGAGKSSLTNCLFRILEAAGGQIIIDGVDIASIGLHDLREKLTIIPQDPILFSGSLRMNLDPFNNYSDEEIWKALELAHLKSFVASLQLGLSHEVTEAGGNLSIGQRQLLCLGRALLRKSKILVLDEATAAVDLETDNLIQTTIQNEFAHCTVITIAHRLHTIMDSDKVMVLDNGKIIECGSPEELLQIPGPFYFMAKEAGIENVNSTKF
Procedure: In all cases, each determination was performed in triplicate.
1.5 Preparation of Rat Sandwich-Cultured Hepatocytes

SMILES	lowest effective dosage for inhibiting efflux transport of silybin (Caco-2 cell monolayers)	IC50 (BCRP)	mean efflux ratio of Ph A in the presence of inhibitor (BCRP)	PA-B (Caco-2 cell monolayers)	mean efflux ratio (PB-A/PA-B) (Caco-2 cell monolayers)	mean net efflux ratio (MRP2)	further results
O=c1cc(-c2ccccc2)oc2cc(O)c(O)c(O)c12 [baicalein]	0.5 µM	22.1 µM	1.48				effect on efflux of silybin (Caco-2 cell monolayers; 5 μM baicalein, silybin at 40 μM): did not affect the efflux of silybin; effect on efflux of silybin (Caco-2 cell monolayers; 5 μM baicalein, silybin concentration below 30 μM): significantly inhibited the efflux of silybin
COc1cc([C@H]2Oc3cc([C@H]4Oc5cc(O)cc(O)c5C(=O)[C@@H]4O)ccc3O[C@@H]2CO)ccc1O [silybin A]				0.47±0.03×10^−6 cm/s	5.05	3.06	
COc1cc([C@@H]2Oc3cc([C@H]4Oc5cc(O)cc(O)c5C(=O)[C@@H]4O)ccc3O[C@H]2CO)ccc1O [silybin B]				0.45±0.02×10^−6 cm/s	4.61	3.30	
COc1cc(C2Oc3cc([C@H]4Oc5cc(O)cc(O)c5C(=O)[C@@H]4O)ccc3OC2CO)ccc1O (stereo partly shown) [silybin]							MRP2 substrate status (MRP2; dog, 180 min, 10 µM): is a MRP2 substrate
COc1ccc(-c2cc(=O)c3c(OC)c(OC)c(OC)c(OC)c3o2)cc1 [tangeretin]	0.05 µM	8.88 µM	1.18				effect on efflux of silybin (Caco-2 cell monolayers; 0.5 μM tangeretin, silybin 2.5 to 40 μM): Significant inhibitory effects
